According to patent US20240158446A1, “CYCLIC COMPOUND HAVING SELECTIVE INHIBITORY ACTION ON KRAS OVER HRAS AND NRAS” (CHUGAI SEIYAKU KABUSHIKI KAISHA, priority 2021, published 2024):
Like-named read-outs stand apart in the source and are kept apart here.

What was measured:
[1] = biological target: GDP-bound KRAS wild-type protein (Homo sapiens, UniProt P01116); experiment: Binding to KRAS by surface plasmon resonance (SPR), Single Cycle Kinetics; conditions: GDP-bound KRAS wild-type protein, read-out: KRAS KD
Sequence of GDP-bound KRAS wild-type protein (P01116 whole entry): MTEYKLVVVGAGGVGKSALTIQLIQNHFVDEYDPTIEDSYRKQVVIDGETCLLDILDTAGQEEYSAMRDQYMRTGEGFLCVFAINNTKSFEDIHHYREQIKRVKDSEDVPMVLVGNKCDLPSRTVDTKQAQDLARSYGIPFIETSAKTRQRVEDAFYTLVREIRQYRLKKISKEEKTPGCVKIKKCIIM

[2] = biological target: GDP-bound NRAS wild-type protein (Homo sapiens, UniProt P01111); experiment: Binding to NRAS by surface plasmon resonance (SPR), Single Cycle Kinetics; conditions: for NRAS/KRAS (ratio of KD value for NRAS to KD value for KRAS) / NRAS/KRAS (ratio of KD value with respect to NRAS to KD value with respect to KRAS): SPR, GDP-bound NRAS wild-type protein vs GDP-bound KRAS wild-type protein
Sequence of GDP-bound NRAS wild-type protein (P01111 whole entry): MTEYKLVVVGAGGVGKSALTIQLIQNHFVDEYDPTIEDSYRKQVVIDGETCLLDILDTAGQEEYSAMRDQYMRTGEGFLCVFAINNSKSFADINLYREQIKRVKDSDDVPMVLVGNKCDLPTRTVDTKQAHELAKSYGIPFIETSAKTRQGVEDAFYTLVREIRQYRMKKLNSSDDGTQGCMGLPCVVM

[3] = biological target: GDP-bound HRAS wild-type protein (Homo sapiens, UniProt P01112); experiment: Binding to HRAS by surface plasmon resonance (SPR), Single Cycle Kinetics; conditions: for HRAS/KRAS (ratio of KD value for HRAS to KD value for KRAS) / HRAS/KRAS (ratio of KD value with respect to HRAS to KD value with respect to KRAS): SPR, GDP-bound HRAS wild-type protein vs GDP-bound KRAS wild-type protein
Sequence of GDP-bound HRAS wild-type protein (P01112 whole entry): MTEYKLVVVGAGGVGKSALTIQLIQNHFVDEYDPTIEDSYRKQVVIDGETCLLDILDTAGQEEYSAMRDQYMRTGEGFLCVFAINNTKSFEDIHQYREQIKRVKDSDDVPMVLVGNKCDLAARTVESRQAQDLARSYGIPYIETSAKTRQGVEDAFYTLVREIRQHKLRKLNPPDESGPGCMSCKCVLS

[4] = SPR Single Cycle Kinetics, 1:1 binding model

C#CC[C@H]1C(=O)N[C@@H]([C@@H](C)CC)C(=O)N(C)CC(=O)N(C)[C@H]2C/C=C\CCN(C2=O)[C@@H](Cc2ccc(C(F)(F)F)cc2)C(=O)N(C)CC(=O)N[C@@H](CCc2ccc(C(F)(F)F)c(OC)c2)C(=O)N2C[C@H](OCC)C[C@H]2C(=O)NC2(CC(C)(C)C2)C(=O)N(C)[C@@H](C2CCCC2)C(=O)N(C)[C@H](C(=O)N(C)CC)CC(=O)N1C [PP2051]
Kd ([1]; SPR, Single Cycle Kinetics): 0.12 nM
NRAS/KRAS (ratio of KD value for NRAS to KD value for KRAS) [2]: A (a compound having 10 or more and less than 20 is denoted as A)
HRAS/KRAS (ratio of KD value for HRAS to KD value for KRAS) [3]: A (a compound having 10 or more and less than 20 is denoted as A)

CCO[C@@H]1C[C@H]2C(=O)NC3(CC(C)(C)C3)C(=O)N(C)[C@@H](C3CCCC3)C(=O)N(C)[C@H](C(=O)N3CCCCC3)CC(=O)N(C)[C@H]3CC/C=C/c4ccc(cc4)C[C@@H](C(=O)N(C)CC(=O)N[C@@H](CCc4ccc(Cl)c(Cl)c4)C(=O)N2C1)N1CC/C=C\C[C@@H](C1=O)N(C)C(=O)CN(C)C(=O)[C@H]([C@@H](C)CC)NC3=O [PP2597]
Kd [1, 4]: 0.51 nM
NRAS/KRAS (ratio of KD value with respect to GDP-bound NRAS wild-type protein to KD value with respect to KRAS) ([2]; SPR KD ratio NRAS/KRAS, class symbols): A (a compound having 10 or more and less than 20 is denoted as A)
HRAS/KRAS (ratio of KD value with respect to GDP-bound HRAS wild-type protein to KD value with respect to KRAS) ([3]; SPR KD ratio HRAS/KRAS, class symbols): A (a compound having 10 or more and less than 20 is denoted as A)

CCO[C@@H]1C[C@H]2C(=O)NC3(CC(C)(C)C3)C(=O)N(C)[C@@H](C(CC)CC)C(=O)N(C)[C@H](C(=O)N3CCCC3)CC(=O)N(C)[C@@H](CC)C(=O)N[C@@H]([C@@H](C)CC)C(=O)N(C)CC(=O)N(C)[C@H]3C/C=C\CCN(C3=O)[C@@H](Cc3ccc(C)cc3)C(=O)N(C)CC(=O)N[C@@H](CCc3cc(F)c(C(F)(F)F)c(F)c3)C(=O)N2C1 [PP2149]
Kd ([1]; SPR, Single Cycle Kinetics): 0.58 nM
NRAS/KRAS (ratio of KD value for NRAS to KD value for KRAS) [2]: A (a compound having 10 or more and less than 20 is denoted as A)
HRAS/KRAS (ratio of KD value for HRAS to KD value for KRAS) [3]: A (a compound having 10 or more and less than 20 is denoted as A)

CCO[C@@H]1C[C@H]2C(=O)NC3(CCC3)C(=O)N(C)[C@@H](C3CCCC3)C(=O)N(C)[C@H](C(=O)N(C)C)CC(=O)N(C)[C@@H](Cc3cccc(C)c3)C(=O)N[C@@H]([C@@H](C)CC)C(=O)N(C)CC(=O)N(C)[C@H]3CCCCCN(C3=O)[C@@H](Cc3ccc(C(F)(F)F)cc3)C(=O)N(C)CC(=O)N[C@@H](CCc3cc(F)c(C(F)(F)F)c(F)c3)C(=O)N2C1 [PP0942]
Kd ([1]; SPR, Single Cycle Kinetics): 0.99 nM
NRAS/KRAS (ratio of KD value for NRAS to KD value for KRAS) [2]: B (a compound having 3 or more and less than 10 is denoted as B)
HRAS/KRAS (ratio of KD value for HRAS to KD value for KRAS) [3]: B (a compound having 3 or more and less than 10 is denoted as B)

CCO[C@@H]1C[C@H]2C(=O)NC3(CCC3)C(=O)N(C)[C@@H](C3CCCC3)C(=O)N(CCC3CCCC3)[C@H](C(=O)N3CCOCC3)CC(=O)N(C)[C@@H](CC(C)C)C(=O)N[C@@H]([C@@H](C)CC)C(=O)N(C)CC(=O)N(C)[C@H]3CCCCN(C3=O)[C@@H](Cc3ccc(C(F)(F)F)cc3)C(=O)N(C)CC(=O)N[C@@H](CCc3cc(F)c(C(F)(F)F)c(F)c3)C(=O)N2C1 [PP0651]
Kd [1, 4]: 0.6 nM
NRAS/KRAS (ratio of KD value with respect to NRAS to KD value with respect to KRAS) [2]: B (a compound having 3 or more and less than 10 is denoted as B)
HRAS/KRAS (ratio of KD value with respect to HRAS to KD value with respect to KRAS) [3]: B (a compound having 3 or more and less than 10 is denoted as B)

CC[C@H](C)[C@@H]1NC(=O)[C@H](CC2CC2)N(C)C(=O)C[C@@H](C(=O)N(C)C)N(C)C(=O)[C@H](C2CCCC2)N(C)C(=O)C2(CCCC2)NC(=O)[C@@H]2CC(F)(F)CN2C(=O)[C@H](CCc2cc(F)c(C(F)(F)F)c(F)c2)NC(=O)CN(C)C(=O)[C@H](Cc2ccc(C(F)(F)F)cc2)N2CC/C=C\C[C@@H](C2=O)N(C)C(=O)CN(C)C1=O [PP1513, (2S,8S,14S,20S,23S,27S,30S,36S,38Z)-20-cyclopentyl-27-(cyclopropylmethyl)-8-[2-[3,5-difluoro-4-(trifluoromethyl)phenyl]ethyl]-12,12-difluoro-N,N,4,19,22,26,32,35-octamethyl-30-[(1S)-1-methylpropyl]-3,6,9,15,18,21,25,28,31,34,42-undecaoxo-2-[[4-(trifluoromethyl)phenyl]methyl]spiro[1,4,7,10,16,19,22,26,29,32,35-undecazatricyclo[34.5.1.0^10,14]dotetracont-38-ene-17,1′-cyclopentane]-23-carboxamide]
Kd ([1]; SPR, Single Cycle Kinetics, 1:1 binding model): 0.071 nM
NRAS/KRAS (ratio of KD value for NRAS to KD value for KRAS) ([2]; KD ratio class): A (a compound having 10 or more and less than 20 is denoted as A)
HRAS/KRAS (ratio of KD value for HRAS to KD value for KRAS) ([3]; KD ratio class): A (a compound having 10 or more and less than 20 is denoted as A)

CCO[C@@H]1C[C@H]2C(=O)NC3(CCC3)C(=O)N(C)[C@@H](C3CCCC3)C(=O)N(C)[C@H](C(=O)N(C)C)CC(=O)N(C)[C@@H](CC3CC3)C(=O)N[C@@H]([C@@H](C)CC)C(=O)N(C)CC(=O)N(C)[C@H]3CCCCN(C3=O)[C@@H](Cc3ccc(C(F)(F)F)cc3)C(=O)N(C)CC(=O)N[C@@H](CCc3cc(F)c(C(F)(F)F)c(F)c3)C(=O)N2C1 [PP0697]
Kd [1, 4]: 0.021 nM
NRAS/KRAS (ratio of KD value with respect to NRAS to KD value with respect to KRAS) [2]: C (A compound having a KD ratio of 0.1 or more and less than 3 is denoted as C)
HRAS/KRAS (ratio of KD value with respect to HRAS to KD value with respect to KRAS) [3]: C (A compound having a KD ratio of 0.1 or more and less than 3 is denoted as C)

CCC[C@H]1C(=O)N[C@@H]([C@@H](C)CC)C(=O)N(C)CC(=O)N(C)[C@H]2CCCCN(C2=O)[C@@H](Cc2ccc(C(F)(F)F)cc2)C(=O)N(C)CC(=O)N[C@@H](CCc2cc(F)c(C(F)(F)F)c(F)c2)C(=O)N2C[C@H](OCC)C[C@H]2C(=O)NC2(CCC2)C(=O)N(C)[C@@H](C2CCCC2)C(=O)N(C)[C@H](C(=O)N(C)C)CC(=O)N1C [PP0694]
Kd [1, 4]: 0.025 nM
NRAS/KRAS (ratio of KD value with respect to NRAS to KD value with respect to KRAS) [2]: C (A compound having a KD ratio of 0.1 or more and less than 3 is denoted as C)
HRAS/KRAS (ratio of KD value with respect to HRAS to KD value with respect to KRAS) [3]: C (A compound having a KD ratio of 0.1 or more and less than 3 is denoted as C)

CCC(CC)[C@@H]1NC(=O)[C@H](CC(C)C)N(C)C(=O)C[C@@H](C(=O)N2CCOCC2)N(C)C(=O)[C@H](C2CCCC2)N(C)C(=O)C2(CCCC2)NC(=O)[C@@H]2CCCN2C(=O)[C@H](CCc2cc(F)c(C(F)(F)F)c(F)c2)NC(=O)CN(C)C(=O)[C@H](Cc2ccc(C(F)(F)F)cc2)N2CCCC[C@@H](C2=O)N(C)C(=O)CN(C)C1=O [PP0597]
Kd [1, 4]: 0.33 nM
NRAS/KRAS (ratio of KD value with respect to NRAS to KD value with respect to KRAS) [2]: B (a compound having 3 or more and less than 10 is denoted as B)
HRAS/KRAS (ratio of KD value with respect to HRAS to KD value with respect to KRAS) [3]: B (a compound having 3 or more and less than 10 is denoted as B)

CCO[C@@H]1C[C@H]2C(=O)NC3(CCC3)C(=O)N(C)[C@@H](C3CCCC3)C(=O)N(C)[C@H](C(=O)N(C)C)CC(=O)N(C)[C@@H](CC)C(=O)N[C@@H]([C@@H](C)CC)C(=O)N(C)CC(=O)N(C)[C@H]3CCCCN(C3=O)[C@@H](Cc3ccc(C(F)(F)F)cc3)C(=O)N(C)CC(=O)N[C@@H](CCc3c(F)c(F)c(C(F)(F)F)c(F)c3F)C(=O)N2C1 [PP0886]
Kd ([1]; SPR, Single Cycle Kinetics): 0.086 nM
NRAS/KRAS (ratio of KD value for NRAS to KD value for KRAS) [2]: C (A compound having a KD ratio of 0.1 or more and less than 3 is denoted as C)
HRAS/KRAS (ratio of KD value for HRAS to KD value for KRAS) [3]: B (a compound having 3 or more and less than 10 is denoted as B)

CC[C@H](C)[C@@H]1NC(=O)[C@H](CC(C)C)N(C)C(=O)C[C@@H](C(=O)N2CCOCC2)N(C)C(=O)[C@H](C2CCCC2)N(C)C(=O)C2(CCCC2)NC(=O)[C@@H]2CCCN2C(=O)[C@H](CCc2cc(F)c(C(F)(F)F)c(F)c2)NC(=O)CN(C)C(=O)[C@H](Cc2ccc(C(F)(F)F)cc2)N2CCCC[C@@H](C2=O)N(C)C(=O)CNC1=O [PP0542]
Kd [1, 4]: 0.11 nM
NRAS/KRAS (ratio of KD value with respect to NRAS to KD value with respect to KRAS) [2]: B (a compound having 3 or more and less than 10 is denoted as B)
HRAS/KRAS (ratio of KD value with respect to HRAS to KD value with respect to KRAS) [3]: B (a compound having 3 or more and less than 10 is denoted as B)

CCO[C@@H]1C[C@H]2C(=O)NC3(CC(C)(C)C3)C(=O)N(C)[C@@H](C(CC)CC)C(=O)N(C)[C@H](C(=O)N3CCCC3)CC(=O)N(C)[C@@H](C)C(=O)N[C@@H]([C@@H](C)CC)C(=O)N(C)CC(=O)N(C)[C@H]3C/C=C\CCN(C3=O)[C@@H](Cc3ccc(C(F)(F)F)cc3)C(=O)N(C)CC(=O)N[C@@H](CCc3ccc(C(F)(F)F)c(OC)c3)C(=O)N2C1 [PP2163]
Kd ([1]; SPR, Single Cycle Kinetics): 0.41 nM
NRAS/KRAS (ratio of KD value for NRAS to KD value for KRAS) [2]: A (a compound having 10 or more and less than 20 is denoted as A)
HRAS/KRAS (ratio of KD value for HRAS to KD value for KRAS) [3]: A (a compound having 10 or more and less than 20 is denoted as A)
